Data published in article PMC3231123, “A Bacterial Biosensor for Oxidative Stress Using the Constitutively Expressed Redox-Sensitive Protein roGFP2” (Sensors (Basel, Switzerland), 2010).

Molecular target: T1, roGFP2 (Aequorea victoria, UniProt P42212, C48S/S65T/Q80R/S147C/Q204C)
T1 construct: gene GFP; redox-sensitive GFP mutant, His tag (pRSET-roGFP2), expressed in E. coli DH5alpha, Ni-NTA purified, DTT-reduced then desalted
Test: […] nm excitation fluorescence ratio of isolated roGFP2, plate reader
Conditions: 1 ppm menadione; DTT-reduced roGFP2 1.39 ug/mL; 75 mM HEPES pH 7.0, 140 mM NaCl; monitored 5 min; oxidation of roGFP2, not reversible binding

Structure (SMILES): CC1=CC(=O)c2ccccc2C1=O [menadione, 2-methyl-1,4-naphtoquinone]
- % change of 400/490 nm ratio vs t = 0 at 1 ppm: 9.1 to 29.4%
